Where “and” joins values, the source holds several entries; their conditions need not be identical. Equal values may be shown once.
molecular target: NK1 receptor (Homo sapiens, UniProt P25103); assay: NK1 receptor binding: inhibition of Substance P binding, Ki by the Chang-Prusoff equation; conditions: inhibition constant from the concentration giving 50% inhibition of binding; procedure of Duffy et al.
From the text: The percent of MSB is defined by the following equation, wherein “dpm” represents “disintegrations per minute”: [formula]

Chain of NK1 receptor (P25103 whole entry, species assumed): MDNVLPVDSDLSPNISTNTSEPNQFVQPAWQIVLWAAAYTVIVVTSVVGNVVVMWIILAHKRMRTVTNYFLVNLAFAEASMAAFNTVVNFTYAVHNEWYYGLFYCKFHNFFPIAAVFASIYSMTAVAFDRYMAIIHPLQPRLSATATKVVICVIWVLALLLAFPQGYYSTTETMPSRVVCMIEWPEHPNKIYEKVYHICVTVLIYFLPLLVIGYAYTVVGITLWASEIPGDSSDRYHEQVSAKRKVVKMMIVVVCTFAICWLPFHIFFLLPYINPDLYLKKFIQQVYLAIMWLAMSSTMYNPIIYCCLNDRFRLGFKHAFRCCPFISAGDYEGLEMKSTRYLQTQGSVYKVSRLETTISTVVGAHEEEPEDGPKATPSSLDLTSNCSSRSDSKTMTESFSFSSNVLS

Row | SMILES | Ki
1 | C[C@@H](OC[C@]1(c2ccccc2)C[C@]2(C1)N=CNC2=O)c1cc(C(F)(F)F)cc(C(F)(F)F)c1 [Example 46] | 0.13 to 1.78 nM
2 | C[C@@H](OC[C@]1(c2ccccc2)C[C@](N)(C(N)=O)C1)c1cc(C(F)(F)F)cc(C(F)(F)F)c1 [Example 28] | 0.13 to 1.78 nM
3 | CNC(=O)[C@]1(N)C[C@@](CO[C@H](C)c2cc(C(F)(F)F)cc(C(F)(F)F)c2)(c2ccccc2)C1 [Example 27] | 0.13 to 1.78 nM
4 | C[C@@H](OC[C@]1(c2ccccc2)C[C@]2(C1)NCNC2=O)c1cc(C(F)(F)F)cc(C(F)(F)F)c1 [Example 49] | 0.13 to 1.78 nM and 0.2 nM

Other lines, results leading:

Row | Ki | SMILES
5 | 0.13 to 1.78 nM | C[C@@H](OC[C@]1(c2ccccc2)C[C@@]2(CNC(=O)N2)C1)c1cc(C(F)(F)F)cc(C(F)(F)F)c1 [Example 12b]
6 | 0.13 to 1.78 nM | C[C@@H](OC[C@]1(c2ccccc2)C[C@]2(C1)NC(=O)NC2=O)c1cc(C(F)(F)F)cc(C(F)(F)F)c1 [Example 11a]
7 | 0.13 to 1.78 nM | C[C@@H](OC[C@]1(c2ccccc2)C[C@@]2(C1)NC(=O)NC2=O)c1cc(C(F)(F)F)cc(C(F)(F)F)c1 [Example 11b]

Reference: patent US6878732B2, “NK1 antagonists” (Schering Corporation, priority 2002, dated 2005)
